Data set [1] addresses T1, Human P45017α (Homo sapiens, UniProt P05093).
T1 construct: Human testicular microsomes were prepared from human testes; from tissue; host or cells: human testes (untreated prostatic cancer patients undergoing orchidectomy), microsomal fraction
T1 sequence (P05093 1-508): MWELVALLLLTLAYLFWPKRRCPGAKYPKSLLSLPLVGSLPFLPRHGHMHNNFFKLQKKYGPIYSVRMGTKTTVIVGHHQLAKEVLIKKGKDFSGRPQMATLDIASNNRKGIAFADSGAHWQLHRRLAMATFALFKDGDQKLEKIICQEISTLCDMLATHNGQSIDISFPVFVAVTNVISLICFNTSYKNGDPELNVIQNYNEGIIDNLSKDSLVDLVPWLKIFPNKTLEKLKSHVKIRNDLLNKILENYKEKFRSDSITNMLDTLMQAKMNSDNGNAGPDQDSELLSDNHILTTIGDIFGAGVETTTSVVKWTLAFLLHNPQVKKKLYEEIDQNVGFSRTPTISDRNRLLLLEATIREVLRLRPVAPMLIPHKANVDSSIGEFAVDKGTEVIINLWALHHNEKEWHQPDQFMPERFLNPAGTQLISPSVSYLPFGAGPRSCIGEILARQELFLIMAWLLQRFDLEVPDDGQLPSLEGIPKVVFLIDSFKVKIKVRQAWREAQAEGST
Nature of the data set: Inhibition of human testicular microsomal P45017α (lyase activity, release of C3H3COOH from [21-3H3]-17α-hydroxypregnenolone). Particulars: for Ki: Human P45017α Ki, from Lineweaver-Burk plots and slope replots, Km of 17α-hydroxypregnenolone 560 nM; for inhibition at 0.15 µM / % Inhibition of human P45017α: inhibitor 150 nM, substrate 17α-hydroxypregnenolone 10 μM, mean of two determinations; for inhibition at 0.15 µM: read-out: % Inhibition of human P45017α. In kind it is biochemical. The protocol: (§1) The microsomes were stored at −70° C. until assayed. Just before use, the thawed microsomes were diluted with 0.1 M phosphate buffer (pH 7.4) to appropriate concentrations.
(§2) This assay measures only the lyase activity of the P45017α enzyme.
(§3) IC50 values for inhibitors were calculated from the linear regression line in the plot of logit of lyase activity versus log of inhibitor concentration. […] Each inhibitor was examined at three concentrations.

Data set [2] deals with T2, Rat P45017α (Rattus norvegicus, UniProt P11715).
T2 sequence (P11715 1-507): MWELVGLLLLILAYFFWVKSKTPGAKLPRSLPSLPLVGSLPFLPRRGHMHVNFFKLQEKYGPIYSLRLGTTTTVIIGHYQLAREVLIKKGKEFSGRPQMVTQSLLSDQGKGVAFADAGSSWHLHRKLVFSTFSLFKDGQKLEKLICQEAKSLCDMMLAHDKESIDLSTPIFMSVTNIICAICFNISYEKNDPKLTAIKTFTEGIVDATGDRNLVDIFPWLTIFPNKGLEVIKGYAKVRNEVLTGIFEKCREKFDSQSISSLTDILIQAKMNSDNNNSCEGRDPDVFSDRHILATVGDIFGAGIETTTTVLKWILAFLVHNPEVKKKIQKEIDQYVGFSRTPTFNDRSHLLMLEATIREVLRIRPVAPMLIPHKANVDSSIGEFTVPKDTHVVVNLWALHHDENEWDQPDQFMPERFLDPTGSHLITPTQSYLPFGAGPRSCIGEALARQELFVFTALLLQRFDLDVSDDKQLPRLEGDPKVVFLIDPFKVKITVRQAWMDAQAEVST
Nature of the data set: Inhibition of rat testicular microsomal P45017α (lyase activity). In kind it is biochemical. Particulars: for Inhibition of rat testicular P45017α, in words / IC50: rat testicular microsomes; for IC50: mean ± SDM of at least two experiments, read-out: Rat P45017α IC50. The protocol:
as §1, §2, §3

The target of data set [3] is T3, human prostate 5α-reductase (Homo sapiens, UniProt P31213).
T3 construct: The enzymatic reactions were initiated by addition of human BPH microsomes; from tissue; host or cells: human benign prostatic hyperplasia (BPH) tissue, microsomal fraction
T3 sequence (P31213 1-254): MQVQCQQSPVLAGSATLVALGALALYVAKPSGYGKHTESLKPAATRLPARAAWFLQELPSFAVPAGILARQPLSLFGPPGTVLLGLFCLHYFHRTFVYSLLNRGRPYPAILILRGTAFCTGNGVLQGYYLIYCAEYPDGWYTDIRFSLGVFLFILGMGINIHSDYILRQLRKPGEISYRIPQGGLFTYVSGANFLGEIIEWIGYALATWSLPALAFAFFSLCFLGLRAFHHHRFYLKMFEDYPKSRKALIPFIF
Description: Inhibition of human prostate 5α-reductase in BPH microsomes (conversion of [7-3H]-testosterone to DHT). In kind it is biochemical. Conditions: for Inhibition of 5α-reductase, in words: human prostate enzyme. Here is the method: […] The ethanol was evaporated to dryness under a gentle stream of air. […] The enzymatic reactions were initiated by addition of human BPH microsomes (about 180 μg of microsomal protein in 500 μl of phosphate buffer) in a total volume of 1.0 ml, and the incubations were performed for 10 min under oxygen in a shaking water bath at 37° C. The incubations were terminated by placing the sample tubes on ice and the addition of ether. Also, [^14C]-DHT (3000 dpm) and cold DHT (50 μg) were added to each tube as an internal standard and visualization marker, respectively. The steroids were extracted with ether and separated by TLC (chloroform:ether, 80:20) and visualized by exposure to iodine vapor. The extracts were analyzed for ^3H and ^14C using a liquid scintillation counter. The percentage conversion of [7-^3H]-testosterone to [^3H]-dihydrotestosterone was calculated and used to determine 5α-reductase activity.

Where [4] appears, read: from IC50 values, rat vs human testicular microsomes.
[5] abbreviates: human BPH microsomes, mean ± SDM of at least two experiments, read-out: 5α-Reductase IC50.
Setting [6] is: human testicular microsomes, mean ± SDM of at least two experiments, read-out: Human P45017α IC50.

Where “and” joins values, the source holds several entries; their conditions need not be identical. Equal values may be shown once. Entries after “also recorded” stand apart in the source; their conditions may differ. Read-outs that look alike come from different tables or passages of the source.

The term melting point denotes the temperature of the solid-liquid transition. `CC(=O)O[C@H]1CC[C@@]2(C)C(=CC[C@@H]3[C@@H]2CC[C@]2(C)C(n4nccn4)=CC[C@@H]32)C1` showed a melting point of 154 to 155 °C.

The compound `CC(=O)O[C@H]1CC[C@@]2(C)C(=CC[C@@H]3[C@@H]2CC[C@]2(C)C(n4ccnn4)=CC[C@@H]32)C1` registered a melting point of 158 to 160 °C.

Turning to `CC(=O)O[C@H]1CC[C@@]2(C)C(=CC[C@@H]3[C@@H]2CC[C@]2(C)C(n4ncnn4)=CC[C@@H]32)C1`, the melting point is 155 to 156 °C.

Consider `CC(=O)O[C@H]1CC[C@@]2(C)C(=CC[C@@H]3[C@@H]2CC[C@]2(C)C(n4cccn4)=CC[C@@H]32)C1`, for which the melting point is 159 to 161 °C.

The compound `CC(=O)O[C@H]1CC[C@@]2(C)C(=CC[C@H]3[C@@H]4CC[C@@H](n5cccn5)[C@@]4(C)CC[C@@H]32)C1` came in with a melting point of 238 to 240 °C.

As a reminder, the IC50 is the concentration that inhibits the measured activity by half. As usually defined, the Ki is a dissociation constant, usually derived from enzyme kinetics or from competition with a known ligand. Lower therefore signals a stronger hold on the target. The term inhibition denotes the change of the read-out against control, counted positive when it falls. Regarding `C[C@]12CC[C@H](O)CC1=CC[C@@H]1[C@@H]2CC[C@]2(C)C(n3cncn3)=CC[C@@H]12` [Compound 6, 3β-hydroxy-17-(1H, 1,2,4-triazol-1-yl)androsta-5,16-diene], the melting point was 185 to 189 °C (dec.). In addition, in data set [1], half-maximal inhibition (IC50) was put at 90 nM; the affinity, expressed as Ki, was 23 nM; the inhibition at 0.15 µM amounted to 60%. For the same compound, the “Inhibition of human P45017α, in words” value in data set [1] (human testicular microsomes) is “potent inhibitors; also recorded: powerful inhibitors”. In addition, the “Increase of potency towards the rat enzyme compared with human P45017α” value (“Increase” for short) in data set [2] (setting [4]) is given as 3.5 fold. Also, in data set [2], the “Inhibition of rat testicular P45017α, in words” value is “powerful inhibitors” and the IC50 came to 26 ± 13 nM. The IC50 in data set [3] (setting [5]) is about 160000 nM. In data set [3], the “Inhibition of 5α-reductase, in words” value is “poor inhibitors”.

As to `C[C@]12CCC(=O)C=C1CC[C@@H]1[C@@H]2CC[C@]2(C)C(n3cncn3)=CC[C@@H]12` [Compound 7, 17-(1H, 1,2,4-triazol-1-yl)androsta-4,16-diene-3-one], the “Inhibition of human P45017α, in words” value in data set [1] (human testicular microsomes) is recorded as “powerful inhibitors”. Further, the IC50 in data set [1] (setting [6]) stood at 55 ± 11 nM; in data set [2] it was 11 ± 3 nM; in data set [3] (setting [5]), 152 ± 10 nM. Also, in data set [2] (setting [4]), the “Increase” value is given as 5 fold. Moreover, the “Inhibition of rat testicular P45017α, in words” value in data set [2] is given as “powerful inhibitors”. The “Inhibition of 5α-reductase, in words” value in data set [3] was “potent inhibitors”.

As to `C[C@]12CC[C@H]3[C@@H](CC=C4C[C@@H](O)CC[C@@]43C)[C@@H]1CC[C@@H]2n1cncn1` [Compound 8, 3β-hydroxy-17β-(1H-1,2,4-triazol-1-yl)androst-5-ene], the melting point lay in the range of 246 to 248 °C. Further, in data set [1] (setting [6]), the IC50 turned out to be 219 nM.

With `C[C@]12CCC(=O)C=C1CC[C@@H]1[C@@H]2CC[C@]2(C)C(n3ccnc3)=CC[C@@H]12` [Compound 12, 17-(1H-imidazol-1-yl)androsta-4,16-diene-3-one], in data set [1], half-maximal inhibition (IC50) required 7 ± 1 nM; the Ki is 1.8 nM and 1.9 nM. The “Inhibition of human P45017α, in words” value in data set [1] (human testicular microsomes) is “powerful inhibitors”. Also, the “Increase” value in data set [2] (setting [4]) is given as “unchanged”. Moreover, in data set [2], the “Inhibition of rat testicular P45017α, in words” value is on record as “powerful inhibitors” and the IC50 was 8 ± 0.7 nM. Besides, in data set [3] (setting [5]), the IC50 is 142 ± 5 nM. Besides, the “Inhibition of 5α-reductase, in words” value in data set [3] is “potent inhibitors”.

Turning to `C[C@]12CC[C@H]3[C@@H](CC=C4C[C@@H](O)CC[C@@]43C)[C@@H]1CC[C@@H]2n1ccnc1` [Compound 13, 3β-Hydroxy-17β-(1H-imidazol-1-yl)androst-5-ene], the melting point was 255 to 258 °C. Moreover, the midpoint of inhibition in data set [1], the IC50, lay at 62 nM.

For the compound `C[C@]12CC[C@H]3[C@@H](CCC4=CC(=O)CC[C@@]43C)[C@@H]1CC[C@@H]2n1ccnc1` [Compound 14, 17β-(1H-imidazol-1-yl)androst-4-ene-3-one], the IC50 was determined as 36 nM in data set [1] and 765 ± 100 nM in data set [3].

With `C[C@]12CC[C@H](O)CC1=CC[C@@H]1[C@@H]2CC[C@]2(C)C(n3nccn3)=CC[C@@H]12` [Compound 18, 3β-hydroxy-17-(2H-1,2,3-triazol-2-yl)androsta-5,16-diene], the melting point was in the range of 176 to 177 °C. Besides, the “Inhibition of human P45017α, in words” value in data set [1] (human testicular microsomes) is on record as “non-inhibitory”. Also, the “% Inhibition of human P45017α” value in data set [1] is listed as “N.I.^c”.

`C[C@]12CCC(=O)C=C1CC[C@@H]1[C@@H]2CC[C@]2(C)C(n3ccnn3)=CC[C@@H]12` [Compound 21, 17-(1H-1,2,3-triazol-1-yl)androsta-4,16-diene-3-one] registered a melting point of 118 to 120 °C. In data set [1], this compound displayed an IC50 of 19 ± 1 nM and a Ki of 8 nM. In addition, in data set [1] (human testicular microsomes), the “Inhibition of human P45017α, in words” value is “powerful inhibitors”. The “Increase” value in data set [2] (setting [4]) turned out to be 2 fold. Besides, in data set [2], the “Inhibition of rat testicular P45017α, in words” value is given as “powerful inhibitors” and the IC50 was determined as 9 ± 2 nM. Moreover, in data set [3] (setting [5]), the IC50 was 198 ± 33 nM. In addition, in data set [3], the “Inhibition of 5α-reductase, in words” value is listed as “potent inhibitors”.

Consider `C[C@]12CC[C@H](O)CC1=CC[C@@H]1[C@@H]2CC[C@]2(C)C(n3ncnn3)=CC[C@@H]12` [Compound 25, 3β-hydroxy-17-(2H-tetrazol-2-yl)androsta-5,16-diene], for which the melting point lay in the range of 195 to 198 °C. Besides, the “Inhibition of human P45017α, in words” value in data set [1] (human testicular microsomes) is recorded as “non-inhibitory”. In addition, the “% Inhibition of human P45017α” value in data set [1] is reported as “N.I.^c”.

With `C[C@]12CC[C@H](O)CC1=CC[C@@H]1[C@@H]2CC[C@]2(C)C(n3cnnn3)=CC[C@@H]12` [Compound 27, 3β-hydroxy-17-(1H-tetrazol-1-yl)androsta-5,16-diene], the melting point is 200 to 204 °C (dec.). The “Inhibition of human P45017α, in words” value in data set [1] (human testicular microsomes) was “non-inhibitory”. The “% Inhibition of human P45017α” value in data set [1] is recorded as “N.I.^c”.

Take `C[C@]12CC[C@H](O)CC1=CC[C@@H]1[C@@H]2CC[C@]2(C)C(n3cccn3)=CC[C@@H]12` [Compound 30, 3β-hydroxy-17-(1H-pyrazol-1-yl)androsta-5,16-diene]: the melting point was in the range of 197 to 199 °C. The “Inhibition of human P45017α, in words” value in data set [1] (human testicular microsomes) was “moderate inhibitor”. Besides, the inhibition at 0.15 µM in data set [1] came out at 40%.

As to `CC(=O)N1CCN(c2ccc(OCC3COC(Cn4ccnc4)(c4ccc(Cl)cc4Cl)O3)cc2)CC1` (stereo not drawn) [Ketoconazole, reference compound], the “Inhibition of human P45017α, in words” value in data set [1] (human testicular microsomes) is on record as “strong inhibition”. In addition, the “Decrease of potency towards the rat enzyme compared with human P45017α” value in data set [2] (setting [4]) is on record as “about 3 fold”. Further, the IC50 in data set [2] was found to be 209 ± 17 nM.

The values are drawn from US6444683B2, “17-azolyl steroids useful as androgen synthesis inhibitors” (University of Maryland at Baltimore, priority 1997, dated 2002).
